We go through six compounds from patent US10806746B2, “Di- and tri-cationic glycosylated antitumor ether lipids, L-gucosylated gaels and rhamnose-linked gaels as cytotoxic agents against epithelial cancer cells and cancer stem cells” (The University of Manitoba, priority 2014, dated 2020).

Where two headings read alike, the source gives them in different places. Where only a bound is given, the exact number is not on record here.

In one data set the test system is MDA-MB-231 cells. As to the kind of experiment: MTS viability assay, MDA-MB-231 breast cancer cells. Format: cell-based, human. The method, then:
FIG. 2A. Effects of compounds 1-11 on the viability of MDA-MB231 cells. MDA-MB-231 cells were cultured in DMEM medium supplemented with 10% FBS. Equal numbers were dispersed into 96-well plates. After 24 h, the cells were incubated with compounds 1-11 (0-30 μM) for 48 h. At the end of the incubation, MTS reagent (20% vol/vol) was added and the plates were incubated for 1-4 h. The OD490 was read with a plate reader. Wells with media but no cells were treated in similar fashion and the values utilized as blank. The results represent the mean±standard deviation of 6 independent determinations.
FIG. 2K. Effects of compounds 1, 69-72 on the viability of MDA-MB-231 cells. MDA-MB-231 cells were cultured in DMEM medium supplemented with 10% FBS. Equal numbers were dispersed into 96-well plates. After 24 h, the cells were incubated with compounds 1, 69-72 for 48 h. At the end of the incubation, MTS reagent (20% vol/vol) was added and the plates were incubated for 1-4 h. The OD490 was read with a plate reader. Wells with media but no cells were treated in similar fashion and the values utilized as blank. The results represent the mean±standard deviation of 6 independent determinations.
(§1) The cell lines were cultured from frozen stocks originally obtained from ATCC. MDA-MB-231, JIMT-1, DU145, U81, U251 cells were grown in DMEM medium. BT474, A2780s, A2780cp cells were grown in DMEM/F12 medium supplemented with 10% FBS. MiaPaCa2 was cultured in DMEM supplemented with 10% FBS and 2.5% horse serum. PC3 cells were cultured in F12K medium supplemented with 10% FBS. All the media were supplemented with penicillin/streptomycin.
(§2) The effects of the GAELs on the viability of the various epithelial cancer cell lines was determined as previously described. Briefly, equal numbers of the cells were dispersed into 96-well plates. After 24 h, the cells were incubated with the compounds (0-30 μM) for 48 h. At the end of the incubation, MTS reagent (20% vol/vol) was added and the plates were incubated for 1-4 h. The OD490 was read with a plate reader. Wells with media but no cells were treated in similar fashion and the values utilized as blank. The results represent the mean±standard deviation of 6 independent determinations.

The next data set has as its system BT-474 cells. As to the kind of experiment: MTS viability assay, BT-474 breast cancer cells. The class given is cell-based, human. The method, then:
FIG. 2C. Effects of compounds 1-11 on the viability of BT-474 cells. BT-474 cells were cultured in DMEM/F12 medium supplemented with 10% FBS. Equal numbers were dispersed into 96-well plates. After 24 h, the cells were incubated with compounds 1-11 (0-30 μM) for 48 h. At the end of the incubation, MTS reagent (20% vol/vol) was added and the plates were incubated for 1-4 h. The OD490 was read with a plate reader. Wells with media but no cells were treated in similar fashion and the values utilized as blank. The results represent the mean±standard deviation of 6 independent determinations.
as §1, §2

Data set [1] has as its system EOC 216H primary ovarian cancer cells. As to the kind of experiment: MTS viability, primary epithelial ovarian cancer cells EOC 216H. Conditions: Homo sapiens. Format: cell-based. The method, then: (§3) FIG. 2L to 2N. Effects of compounds 1, 56 or 69 on the viability of primary epithelial ovarian cancer cells grown as adherent and spheroid cultures. EOC cells were isolated from the ascites of ovarian cancer patients. Cells were seeded in regular 96-well plates and grown as adherent cultures. 24 h after seeding the cells were incubated with compounds 1, 56, or 69 for 48 h and the viability of the cells were determined with the MTS assay. Spheroid cultures were obtained by seeding the cells in ultra-low adhesion 96-well plates for 3 days. The spheroids were incubated with compounds 1, 56 or 69 for 3 days. At the end of the incubations, MTS reagent (20% vol/vol) was added and the plates were incubated for 1-4 h. The OD490 was read with a plate reader. Wells with media but no cells were treated in similar fashion and the values utilized as blank. The results represent the mean±standard deviation of 6 independent determinations.
(§4) 4.3.1.2. Isolation of primary epithelial ovarian cancer cells (EOC) from ascites fluid of ovarian cancer patients. The isolation of EOC cells from the ascites fluid of ovarian cancer patients was performed as described by Shepherd et al 2007, Nature protocols 1, 2643-2649). The cells were grown in DMEM/F12 supplemented with 10% FBS medium. 4.3.2. Isolation of breast cancer stem cells from BT-474, prostate cancer stem cells from DU145, and ovarian cancer stem cells from A2780cp cell lines and determination of the effect of GAELs on the viability of the cancer stem cells.

Data set [2] has as its system EOC216B primary ovarian cancer cells. As to the kind of experiment: MTS viability, primary epithelial ovarian cancer cells EOC216B. The class given is cell-based. Conditions: Homo sapiens. As to the method: as §3, §4
The test system of data set [3] is EOC258 primary ovarian cancer cells. As to the kind of experiment: MTS viability, primary epithelial ovarian cancer cells EOC258. Format: cell-based. Conditions: Homo sapiens. The method, then: as §3, §4
Data set [4] concerns EOC260 primary ovarian cancer cells. As to the kind of experiment: MTS viability, primary epithelial ovarian cancer cells EOC260. The class given is cell-based. The settings on record: Homo sapiens; adherent culture, 48 h. As to the method: as §3
4.3.1.2. Isolation of primary epithelial ovarian cancer cells (EOC) from ascites fluid of ovarian cancer patients. The isolation of EOC cells from the ascites fluid of ovarian cancer patients was performed as described by Shepherd et al 2007, Nature protocols 1, 2643-2649). The cells were grown in DMEM/F12 supplemented with 10% FBS medium. 4.3.2. […]

Where [5] appears, read: Table 1A, 48 h, read-out: CC50 values MD 231.
[6] abbreviates: Table 1B, 48 h, read-out: CC90 values MD 231.
The mark [7] stands for this setting: Table 1A, 48 h, MTS, read-out: CC50 values BT474.
The mark [8] stands for this setting: Table 1B, 48 h, MTS, read-out: CC90 values BT474.
The mark [9] stands for this setting: Homo sapiens, MDA-MB-231, Table 5, 48 h, read-out: CC50 MDA-MB-231.
Where [10] appears, read: Homo sapiens, MDA-MB-231, Table 5, 48 h, read-out: CC90 MDA-MB-231.
[11] abbreviates: adherent culture, 48 h, read-out: CC50 values EOC 216H Adherent.
The mark [12] stands for this setting: spheroid culture, 3 days, read-out: CC50 values EOC 216H Spheroid.
The mark [13] stands for this setting: 72 h, spheroid culture, 3 days, read-out: CC50 values EOC216B Spheroid.
Setting [14] is: adherent culture, 48 h, read-out: CC50 values EOC216B Adherent.
Where [15] appears, read: 72 h, spheroid culture, 3 days, read-out: CC50 values EOC258 Spheroid.
Setting [16] is: adherent culture, 48 h, read-out: CC50 values EOC258 Adherent.

Consider `CCCCCCCCCCCCCCCCOCC(CO[C@@H]1O[C@H](CN)[C@@H](O)[C@H](O)[C@H]1N)O[C@@H]1O[C@H](CN)[C@@H](O)[C@H](O)[C@H]1N` (stereo partly drawn) [Compound 5, 1-O-Hexadecyloxy-2S/R, 3-di(-2′,6′-diamino-2′, 6′-dideoxy-β-D-glucopyranosyl)-glycerol], for which the 50% cytotoxic concentration (CC50) in the data set with MDA-MB-231 cells (setting [5]) and with BT-474 cells (setting [7]) was more than 30 µM each time. Moreover, the CC90 with MDA-MB-231 cells (setting [6]) and in the data set on BT-474 cells (setting [8]) was more than 30 µM in each case.
On to `CCCCCCCCCCCCCCCCOC[C@@H](CN=[N+]=[N-])O[C@@H]1O[C@H](CO)[C@@H](O)[C@H](O)[C@H]1N` [Compound 6, 1-O-Hexadecyloxy-2R-(2′-amino-2′-deoxy-β-D-glucopyranosyl)-3-azido glycerol], for which the CC50 with MDA-MB-231 cells (setting [5]) stood at 11 µM; in the data set with BT-474 cells (setting [7]) it was 22 µM; in the data set with BT-474 cells (read-out: CC50 against BT 474 cell lines) it was 22 µM. The CC90 with MDA-MB-231 cells (setting [6]) came to 15 µM; with BT-474 cells (setting [8]), 28 µM.
Turning to `CCCCCCCCCCCCCCCCOCCCO[C@@H]1O[C@H](CN)[C@@H](O)[C@H](O)[C@H]1N` [Compound 4, 1-O-Hexadecyl-2-deoxy-3-O-(2′6′-diamino-2′,6′-dideoxy-β-D-glucopyranosyl)-sn-glycerol], the CC50 with MDA-MB-231 cells (setting [5]) came to 4.5 µM; with BT-474 cells (setting [7]), 8.5 µM. Besides, the CC90 was 7 µM in the data set on MDA-MB-231 cells (setting [6]) and 17.5 µM with BT-474 cells (setting [8]).
Consider `CCCCCCCCCCCCCCCCOCC(CO[C@@H]1OC(CO)[C@H](O)[C@H](O)C1N)OC` (stereo partly drawn) [Compound 69], for which the half-maximal cytotoxic concentration (CC50) in the data set with MDA-MB-231 cells (Homo sapiens, MDA-MB-231, Table 2A, 48 h, read-out: CC50 values MDA-MB-231) was determined as 11 µM; in the data set on MDA-MB-231 cells (setting [9]) it was 11 µM; in data set [1] (setting [11]), 1.02 µM; in data set [1] (setting [12]), 1.5 µM; in data set [2] (setting [13]), 1.25 µM; in data set [2] (setting [14]), 0.56 µM. Also, the CC50 is 1.2 µM in data set [3] (setting [15]), 1.4 µM in data set [3] (setting [16]) and 0.3 µM in data set [4]. The CC90 with MDA-MB-231 cells (Homo sapiens, MDA-MB-231, Table 2B, 48 h, read-out: CC90 values MDA-MB-231) turned out to be 17 µM; with MDA-MB-231 cells (setting [10]) it was 17 µM.
For the compound `CCCCCCCCCCCCCCCCOC[C@H](CO[C@H]1O[C@H](CN)[C@@H](O)[C@H](O)[C@H]1N)OC` [Compound 1, 1-O-Hexadecyl-2-O-methyl-3-O-(2′,6′-diamino-2′,6′-dideoxy-α-D-glucopyranosyl)-sn-glycerol], the CC50 was 3 µM with MDA-MB-231 cells (Homo sapiens, MDA-MB-231, Table 1A, 48 h, read-out: CC50 values MD 231); 3 µM in the data set with MDA-MB-231 cells (setting [9]); 7.5 µM in the data set on BT-474 cells (Homo sapiens, BT-474, Table 1A, 48 h, MTS, read-out: CC50 values BT474); 7.5 µM with BT-474 cells (Homo sapiens, BT-474, Table 5, 48 h, MTS, read-out: CC50 B1474); 0.15 µM in data set [1] (setting [11]); 0.21 µM in data set [1] (setting [12]). For the same compound, the CC50 was 0.6 µM in data set [2] (setting [13]); 0.24 µM in data set [2] (setting [14]); 0.6 µM in data set [3] (setting [15]); 0.3 µM in data set [3] (setting [16]); 0.2 µM in data set [4]. For the same compound, the CC90 in the data set on MDA-MB-231 cells (Homo sapiens, MDA-MB-231, Table 1B, 48 h, read-out: CC90 values MD 231) was determined as 4.5 µM; in the data set on MDA-MB-231 cells (setting [10]), 4.5 µM; with BT-474 cells (Homo sapiens, BT-474, Table 1B, 48 h, MTS, read-out: CC90 values BT474), 9.5 µM.
On to `CCCCCCCCCCCCCCCCOC[C@H](COC1O[C@H](CNCCCCCCCCCCCCN)[C@@H](O)[C@H](O)[C@H]1N)OC` (stereo partly drawn) [Compound 73, 1-O-Hexadecyl-2-O-methyl-3-O-[6′-N-(12-aminododecyl)-2′,6′-diamino-2′,6′-dideoxy-glucopyranoside]-sn-glycerol], for which the CC50 in the data set with MDA-MB-231 cells (Table 6, 48 h, read-out: MB-MDA-231 CC50) is 1.5 µM; in the data set on BT-474 cells (Table 6, 48 h, MTS, read-out: BT474 CC50), 1.6 µM. Besides, the CC90 in the data set on MDA-MB-231 cells (Table 6, 48 h, read-out: MB-MDA-231 CC90) was 3.8 µM; in the data set on BT-474 cells (Table 6, 48 h, MTS, read-out: BT474 CC90), 4.2 µM.
